Experimental data from patent US6376175B1, “Methods of discovering chemicals capable of functioning as gene expression modulators” (OSI Pharmaceuticals, Inc., priority 1989, dated 2002).
Read-outs that look alike come from different tables or passages of the source.

How the values were obtained:
[1] = tested on: human G-CSF promoter; type: cell-based; conditions: 7-hour incubation, serum-free media
Source text: A human bladder carcinoma cell line (U5637, ATCC number HTB 9) was used for transfection of plasmids containing the human Granulocyte-Colony Stimulating Factor (G-CSF) promoter (see below) and was maintained in RPMI medium supplemented with 10% FCS. For HTP screening, transfected 5637 clones were transferred to a serum free defined medium identical to that used for the NIH/3T3 clones.
The sequences of OL-1, OL-2 and OL-5 recognize the G-CSF promoter region, OL-4 recognizes the first intron/exon junction and OL-3 recognizes sequences within the second exon (32). One of the clones isolated from the leukocyte library using these oligonucleotide probes contains a 3.5 kb SalI-BamHI fragment of G-CSF genomic sequence consisting of 3.3 kb of promoter sequence and two hundred base pairs of the coding region. This fragment was inserted into the vector pGEM-7-Zf (Promega, Madison, Wis.) which had previously been digested with SalI/BamHI, resulting in the vector pJM710 (FIG. 7). pJM710 was then digested with PstI, and the resulting 1.6 kb fragment containing G-CSF upstream sequences and the first 15 bases of the G-CSF leader sequence was inserted into the PstI site of pGEM5-Luci (FIG. 8) to generate pG-Lucl (FIG. 9). This construct was then used for transfection of 5637 human bladder carcinoma cells as described below in section E3. pGEM5-Luci (FIG. 8) had previously been constructed by inserting the […]/SalI fragment from pSVLuci (FIG. 2) containing the luciferase coding sequence and the SV40 late polyadenylation signal into pGEM 5-Zf (Promega, Madison Wis.) digested with XhoI/SalI.
pG-LUC1 (FIG. 9) and pRSVNeo were co-transfected into 5637 human bladder carcinoma cells as described above. Selection of G418 resistant clones was as described above except for using a concentration of 0.1 mg/ml G418. Analysis of cell clones was performed as above except that a known inducer of G-CSF expression (1-5 µg/ml lipopolysaccharide (LPS), E. coli serotype 055:b5, Difco, Detroit, Mich. or Sigma, St. Louis, Mo.) was used in place of dexamethasone.
Cell plating: Dynatech Microlite 96 well plates were custom pretreated for cell attachment by Dynatech Laboratories, Inc. (Chantilly, Va.). Alternatively, the 96 well plates were treated with 50 µl per well of human fibronectin (hFN, 15 µg/ml in PBS, Collaborative Research, Bedford, Mass.) overnight at 37 C. hFN-treated plates were washed with PBS using an Ultrawash 2 Microplate Washer (Dynatech Labs), to remove excess hFN prior to cell plating. M10, 532, and G21 cells maintained in their respective serum media (with 0.2 mg/ml G418) were washed with PBS, harvested by trypsinization, and counted using a hemocytometer and the Trypan Blue exclusion method according to protocols provided by Sigma, St. Louis, Mo. Chemical Company. Cells were then diluted into serum free defined media (with 0.2 mg/ml G418), and 0.2 ml of cell suspension per well was plated onto Dynatech treated plates (532 and G21) or hFN-treated plates (M10) using a Cetus Pro/Pette (Cetus, Emeryville Calif.). Plates were incubated overnight at 37 C in a humidified 5% CO2 atmosphere.
Addition of Chemicals to Cells: Chemicals from the Oncogene Science file were dissolved in DMSO at concentrations of 3-30 mg/ml. A liquid handling laboratory work station (RSP 5052, Tecan U.S. Chapel Hill, N.C.) was used to dilute the chemicals (three dilutions; 5 fold, 110 fold, and 726 fold). 10 11 of each dilution were added to each of quadruplicate samples of cells contained in the wells of 96-well Dyantech Microlite Plates. […]

[2] = tested on: secreted G-CSF protein; assay: Two-antibody sandwich immunoassay of G-CSF secreted by 5637 bladder carcinoma cells; type: cell-based, human; conditions: 5637 cells, 48 hours, serum-containing media; TNF-alpha 5 ng/ml; #542 50 uM; #1780 1 uM and 0.2 uM; FIG. 55
Procedure: Supernatants from 5637 bladder carcinoma cells incubated with chemicals registering as positives in the G-CSF promoter/luciferase High-Throughput assay were assayed for secreted G-CSF protein using the two-antibody sandwich immunoassay (96). The G-CSF Assay kit manufactured by Oncogene Science, Inc. was used and the manufacturer's instructions were followed.
The levels of G-CSF in the cell supernatants were determined by a sandwich-antibody assay as described in Materials and Methods (FIG. 55).

Compound: CCCCCCCCCCCCCC(=O)O[C@@H]1[C@@H](C)[C@@]2(O)[C@@H](C=C(CO)C[C@]3(O)C(=O)C(C)=C[C@@H]23)[C@@H]2C(C)(C)[C@]12OC(C)=O [PMA, phorbo-myristate-acetate, reference compound]
- increase of luciferase expression directed by the G-CSF promoter, G 21 cells ([1]; absence of EGF): 34.6 fold
- increase of luciferase expression directed by the G-CSF promoter, G 21 cells ([1]; presence of EGF): 24.6 fold

Compound: TNF-alpha
- increase of luciferase expression directed by the G-CSF promoter, G 21 cells ([1]; absence of EGF): 2.1 fold
- increase of luciferase expression directed by the G-CSF promoter, G 21 cells ([1]; presence of EGF): 2.8 fold
- G-CSF secretion into media [2]: increased G-CSF secretion
